# Experimental data from ChEMBL document CHEMBL5257035, “Nucleoside Derived Antibiotics to Fight Microbial Drug Resistance: New Utilities for an Established Class of Drugs?” (J Med Chem, 2016).
# Assays:
# [1] = Inhibition of Candida albicans chitin synthase
# [2] = tested on: Candida albicans; experiment: Inhibition of Candida albicans chitin synthase at 1 uM relative to control
# [3] = tested on: Pseudomonas aeruginosa; experiment: Antimicrobial activity against Pseudomonas aeruginosa M35 assessed as reduction in microbial growth; assay type: functional
# [4] = tested on: Enterococcus faecalis; experiment: Antimicrobial activity against Enterococcus faecalis 10785 assessed as reduction in microbial growth by broth microdilution method; assay type: functional
# [5] = Inhibition of Bacterial MraY; parameters: species or system Bacteria
# [6] = tested on: Staphylococcus aureus; experiment: Antimicrobial activity against methicillin-resistant Staphylococcus aureus assessed as reduction in microbial growth by broth microdilution method; assay type: functional
# [7] = biological target: T1, Phospho-N-acetylmuramoyl-pentapeptide-transferase (Escherichia coli K-12, UniProt P0A6W3); experiment: Inhibition of MraY in Escherichia coli K12
# T1 sequence (P0A6W3 whole entry): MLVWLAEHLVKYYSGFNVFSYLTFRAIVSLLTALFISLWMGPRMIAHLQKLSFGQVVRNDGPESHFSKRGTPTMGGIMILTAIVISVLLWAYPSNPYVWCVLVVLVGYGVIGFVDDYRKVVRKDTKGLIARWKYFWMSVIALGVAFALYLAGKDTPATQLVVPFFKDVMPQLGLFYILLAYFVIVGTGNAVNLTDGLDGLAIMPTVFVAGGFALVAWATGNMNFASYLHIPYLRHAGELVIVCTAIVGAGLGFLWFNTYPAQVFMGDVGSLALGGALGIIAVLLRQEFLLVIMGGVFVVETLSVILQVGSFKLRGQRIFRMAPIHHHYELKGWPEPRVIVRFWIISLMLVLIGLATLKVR
# [8] = tested on: Escherichia coli; experiment: Antibacterial activity against Escherichia coli ATCC 25922 assessed as bacterial growth inhibition measured after 48 hrs by microdilution method; assay type: functional
# [9] = tested on: Candida albicans; experiment: Antifungal activity against Candida albicans assessed as fungal growth inhibition measured after 24 hrs by micro broth dilution method; assay type: functional
# [10] = tested on: Aspergillus fumigatus; experiment: Antifungal activity against Aspergillus fumigatus assessed as fungal growth inhibition; assay type: functional
# [11] = tested on: Cryptococcus neoformans; experiment: Antifungal activity against Cryptococcus neoformans assessed as fungal growth inhibition measured after 24 hrs by micro broth dilution method; assay type: functional
# [12] = tested on: Aspergillus fumigatus; experiment: Antifungal activity against Aspergillus fumigatus assessed as inhibition of fungal growth; assay type: functional
# [13] = tested on: Candida albicans; experiment: Antifungal activity against Candida albicans assessed as inhibition of fungal growth; assay type: functional
# [14] = tested on: Candida albicans; experiment: Antifungal activity against Candida albicans B-311 assessed as reduction fungal growth incubated for 16 hrs by microbroth dilution method; assay type: functional
# [15] = Inhibition of Candida albicans SC5314 chitin synthase using UDP-GlcNAc as substrate incubated for 1 hr
# [16] = tested on: Cryptococcus neoformans; experiment: Antifungal activity against Cryptococcus neoformans assessed as reduction in fungal growth; assay type: functional
# [17] = tested on: Cutaneotrichosporon cutaneum; experiment: Antifungal activity against Trichosporon cutaneum 3071 assessed as reduction in microbial growth inhibition for 48 hrs by broth microdilution assay; assay type: functional
# [18] = tested on: Coccidioides immitis; experiment: Antifungal activity against Coccidioides immitis assessed as reduction in fungal growth; assay type: functional
# [19] = tested on: Candida albicans; experiment: Antifungal activity against Candida albicans SC5314 assessed as reduction in microbial growth inhibition incubated for 48 hrs by broth microdilution assay; assay type: functional
# [20] = tested on: Pseudomonas aeruginosa; experiment: Antibacterial activity against Pseudomonas aeruginosa assessed as bacterial growth inhibition; assay type: functional
# [21] = tested on: Candida albicans; experiment: […] activity against Candida albicans assessed as […] measured after 24 hrs by microtitre dilution method; assay type: functional
smiles,measurement,setting,value
O=C(NC[C@@H]1O[C@H](n2ccc(=O)[nH]c2=O)[C@@H](O)[C@H]1O)OCCOC(=O)NC[C@H]1O[C@@H](n2ccc(=O)[nH]c2=O)[C@H](O)[C@@H]1O,IC50,[1],1100 nM
same,inhibition,[2],32%
CSCC[C@H](NC(=O)N[C@@H](Cc1cccc(O)c1)C(=O)O)C(=O)NC(CN(C)C(=O)C1Cc2ccc(O)cc2C(C)N1)C(=O)N/C=C1/C[C@@H](O)[C@H](N2CCC(=O)NC2=O)O1 (some centres not stated),MIC,[3],6.25 µg/mL
CCC(C)CCCCCCC/C(C)=C/C(C)=C/C(=O)NCC(=O)N[C@H]1[C@H](OP(=O)(O)OC(C(=O)O)C(C[C@H]2O[C@@H](n3ccc(=O)[nH]c3=O)[C@H](O)[C@@H]2O)O[C@@H]2O[C@H](CO)[C@@H](O)[C@H](O)[C@H]2O)O[C@H](CO)[C@@H](O)[C@@H]1O (some centres not stated),MIC,[4],50 µg/mL
same,IC50,[5],1100 nM
same,MIC,[6],100 µg/mL
CCCCCCCCCCCCCNC[C@@H](O[C@@H]1O[C@H](CN)[C@@H](O)[C@H]1O)[C@H]1O[C@@H](n2ccc(=O)[nH]c2=O)[C@H](O)[C@@H]1O,IC50,[7],330 nM
same,MIC,[8],2.5 µg/mL
O=C(NC[C@@H]1O[C@H](n2ccc(=O)[nH]c2=O)[C@@H](O)[C@H]1O)OCCOCCOC(=O)NC[C@H]1O[C@@H](n2ccc(=O)[nH]c2=O)[C@H](O)[C@@H]1O,IC50,[1],11800 nM
same,inhibition,[2],45%
CCCCCCCNC[C@@H](O[C@@H]1O[C@H](CN)[C@@H](O)[C@H]1O)[C@H]1O[C@@H](n2ccc(=O)[nH]c2=O)[C@H](O)[C@@H]1O,IC50,[7],330 nM
same,MIC,[8],2.5 µg/mL
C=CCSC[C@H]1O[C@@H](n2cnc3c([N+](=O)[O-])cccc32)[C@H](O)[C@@H]1O,MIC,[9],0.19 µM
same,MIC,[10],0.19 µM
same,MIC,[11],0.19 µM
COc1ccc(Cn2c(=O)ccn([C@@H]3O[C@H]([C@H](O)[C@H](NCCCNC(=O)[C@@H](N)[C@@H](O)C(C)C)C(=O)OC(C)(C)C)[C@@H](O[Si](C)(C)C(C)(C)C)[C@H]3O[Si](C)(C)C(C)(C)C)c2=O)cc1,MIC,[4],4 µg/mL
same,MIC,[6],4 µg/mL
CSCC[C@H](NC(=O)N[C@@H](Cc1cccc(O)c1)C(=O)O)C(=O)NC(CN(C)C(=O)C1Cc2ccc(O)cc2CN1)C(=O)N/C=C1/C[C@@H](O)[C@H](N2CCC(=O)NC2=O)O1 (some centres not stated),MIC,[3],6.25 µg/mL
O=C(OC[C@H]1O[C@@H](n2ccc(=O)[nH]c2=O)[C@H](O)[C@@H]1O)c1cc(O)ccc1O,MIC,[12],1000 µg/mL
same,MIC,[13],1000 µg/mL
O=C(OC[C@H]1O[C@@H](n2ccc(=O)[nH]c2=O)[C@H](O)[C@@H]1O)c1ccccc1O,MIC,[12],1000 µg/mL
same,MIC,[13],1000 µg/mL
C[C@@H]([C@H](N)C(=O)N[C@H](C(=O)O)[C@H]1O[C@@H](n2ccc(=O)[nH]c2=O)[C@H](O)[C@@H]1O)[C@H](O)c1ccc(O)cn1 [NIKKOMYCIN],MIC,[14],10 µg/mL
same,IC50,[15],0.3 µg/mL
same,MIC,[16],0.03 µg/mL
same,MIC,[17],64 µg/mL
same,IC50,[1],800 nM
same,MIC,[18],0.25 µg/mL
same,MIC,[19],8 µg/mL
CSCC[C@H](NC(=O)N[C@@H](Cc1cccc(O)c1)C(=O)O)C(=O)NC(CN(C)C(=O)C1Cc2ccc(O)cc2CN1)C(=O)N/C=C1/C[C@@H](O)[C@H](n2ccc(=O)[nH]c2=O)O1 (some centres not stated),MIC,[3],6.25 µg/mL
CSCC[C@H](NC(=O)NC(Cc1cccc(O)c1)C(=O)O)C(=O)NC(CN(C)C(=O)[C@@H](N)C(Cc1cccc(O)c1)NCC(=O)O)C(=O)N/C=C1/C[C@@H](O)[C@H](N2CCC(=O)NC2=O)O1 (some centres not stated),MIC,[20],1.5 µg/mL
Nc1ncnc2c1ncn2[C@@H]1O[C@H](CSCCC(=O)O)[C@@H](O)[C@H]1O,MIC,[9],0.19 µM
same,MIC,[10],0.19 µM
same,MIC,[11],0.19 µM
CC(C)C[C@H](N)C(=O)N[C@H](C(=O)N[C@@H](C(=O)O)[C@H]1OC(n2cc(C=O)[nH]c2=O)[C@H](O)[C@@H]1O)[C@H](C)[C@H](O)c1cc(O)ccn1 (some centres not stated),MIC,[14],83 µg/mL
NC(=O)OC[C@H](O)[C@@H](O)[C@H](N)C(=O)N[C@H](C(=O)O)[C@H]1O[C@@H](n2cc(C=O)[nH]c2=O)[C@H](O)[C@@H]1O,MIC,[21],6 µg/mL
CSCC[C@H](NC(=O)N[C@@H](Cc1cccc(O)c1)C(=O)O)C(=O)NC(CN(C)C(=O)C1Cc2ccc(O)cc2C(C)N1)C(=O)N/C=C1/C[C@@H](O)[C@H](n2ccc(=O)[nH]c2=O)O1 (some centres not stated),MIC,[3],6.25 µg/mL
